Data: patent US20240408085A1, “COMPOUND FOR DEGRADATION OF BCL-2 FAMILY PROTEINS AND MEDICAL APPLICATION THEREOF” (XIZANG HAISCO PHARMACEUTICAL CO., LTD., priority 2021, published 2024)
pIC50: −log10 of the molar value.

Tested on: MOLT-4 cells
Test: Cell proliferation activity in MOLT-4 cells (72 h, cell viability luminescence)
Format: cell-based, human
Conditions: Homo sapiens, read-out: IC50 for the inhibition of MOLT-4 cell proliferation
Experimental: MOLT-4 cells are acute lymphoblastic leukemia cell lines in humans. The cells were purchased from ATCC. Culture conditions: RPMI-1640+10% FBS+1% penicillin-streptomycin solution. The cells were cultured in a 37° C., 5% CO2 incubator. The cells were plated in a 96-well plate, with 5×10^3 cells/well. After plating, compounds at different concentrations were added and cultured in a 37° C., 5% CO2 incubator for 72 h. After the completion of culture, a reagent (Promega, G7573) for detecting the cell viability was added. The mixture was uniformly mixed for 2 minutes and then incubated at room temperature for 10 minutes. The luminescence signal was detected with a multimode plate reader (BMG, PHERAstar FSX). The luminescence readings were processed using GraphPad Prism 8.0 software and the IC50 values of the compounds for the inhibition of cell proliferation and the maximum inhibition rate were calculated according to formula (2) and formula (3), respectively, wherein Tadministration denotes the cell signal readings obtained after incubation with the compounds for 72 h, and Tvehicle denotes the cell signal readings obtained after incubation with the vehicle control for 72 h.
Calculation of Max inhibition %: after the processing according to formula (2), the inhibition rate of the compounds at the highest concentration was calculated.

SMILES	pIC50
Cc1ncsc1-c1ccc([C@H](C)NC(=O)[C@@H]2C[C@@H](O)CN2C(=O)[C@@H](NC(=O)CCCCCCC(=O)N2CCN(CC[C@H](CSc3ccccc3)Nc3ccc(S(=O)(=O)NC(=O)c4ccc(N5CCN(CC6=C(c7ccc(Cl)cc7F)CCCCC6)CC5)cc4)cc3S(=O)(=O)C(F)(F)F)CC2)C(C)(C)C)cc1 [Compound 36, (2S,4R)-1-((S)-2-(8-(4-((R)-3-((4-(N-(4-(4-((2-(4-chloro-2-fluorophenyl)cyclohept-1-en-1-yl)methyl)piperazin-1-yl)benzoyl)sulfamoyl)-2-((trifluoromethyl)sulfonyl)phenyl)amino)-4-(phenylthio)butyl)piperazin-1-yl)-8-oxooctanamido)-3,3-dimethylbutanoyl)-4-hydroxy-N—((S)-1-(4-(4-methylthiazol-5-yl)phenyl)ethyl)pyrrolidine-2-carboxamide]	> 6.30
Cc1ncsc1-c1ccc([C@H](C)NC(=O)[C@@H]2C[C@@H](O)CN2C(=O)[C@@H](NC(=O)CCCCCC(=O)N2C[C@@H]3C[C@H]2CN3CC[C@H](CSc2ccccc2)Nc2ccc(S(=O)(=O)NC(=O)c3ccc(N4CCN(CC5=C(c6ccc(Cl)cc6F)CCCCC5)CC4)cc3)cc2S(=O)(=O)C(F)(F)F)C(C)(C)C)cc1 [Compound 37, (2S,4R)-1-((S)-2-(7-((1S,4S)-5-((R)-3-((4-(N-(4-(4-((2-(4-chloro-2-fluorophenyl)cyclohept-1-en-1-yl)methyl)piperazin-1-yl)benzoyl)sulfamoyl)-2-((trifluoromethyl)sulfonyl)phenyl)amino)-4-(phenylthio)butyl)-2,5-diazabicyclo[2.2.1]heptan-2-yl)-7-oxoheptanamido)-3,3-dimethylbutanoyl)-4-hydroxy-N—((S)-1-(4-(4-methylthiazol-5-yl)phenyl)ethyl)pyrrolidine-2-carboxamide]	> 6.30
Cc1ncsc1-c1ccc([C@H](C)NC(=O)[C@@H]2C[C@@H](O)CN2C(=O)[C@@H](NC(=O)CCCCCCC(=O)N2C[C@@H]3C[C@H]2CN3CC[C@H](CSc2ccccc2)Nc2ccc(S(=O)(=O)NC(=O)c3ccc(N4CCN(CC5=C(c6ccc(Cl)cc6F)CCCCC5)CC4)cc3)cc2S(=O)(=O)C(F)(F)F)C(C)(C)C)cc1 [Compound 38, (2S,4R)-1-((S)-2-(8-((1S,4S)-5-((R)-3-((4-(N-(4-(4-((2-(4-chloro-2-fluorophenyl)cyclohept-1-en-1-yl)methyl)piperazin-1-yl)benzoyl)sulfamoyl)-2-((trifluoromethyl)sulfonyl)phenyl)amino)-4-(phenylthio)butyl)-2,5-diazabicyclo[2.2.1]heptan-2-yl)-8-oxooctanamido)-3,3-dimethylbutanoyl)-4-hydroxy-N—((S)-1-(4-(4-methylthiazol-5-yl)phenyl)ethyl)pyrrolidine-2-carboxamide]	> 6.30
Cc1ncsc1-c1ccc([C@H](C)NC(=O)[C@@H]2C[C@@H](O)CN2C(=O)[C@@H](NC(=O)CCCCCC(=O)N2C[C@H]3CN(CC[C@H](CSc4ccccc4)Nc4ccc(S(=O)(=O)NC(=O)c5ccc(N6CCN(CC7=C(c8ccc(Cl)cc8F)CCCCC7)CC6)cc5)cc4S(=O)(=O)C(F)(F)F)C[C@H]3C2)C(C)(C)C)cc1 [Compound 39, cis-(2S,4R)-1-((S)-2-(7-(5-((R)-3-((4-(N-(4-(4-((2-(4-chloro-2-fluorophenyl)cyclohept-1-en-1-yl)methyl)piperazin-1-yl)benzoyl)sulfamoyl)-2-((trifluoromethyl)sulfonyl)phenyl)amino)-4-(phenylthio)butyl)hexahydropyrrolo[3,4-c]pyrrol-2(1H)-yl)-7-oxoheptanamido)-3,3-dimethylbutanoyl)-4-hydroxy-N—((S)-1-(4-(4-methylthiazol-5-yl)phenyl)ethyl)pyrrolidine-2-carboxamide]	> 6.30
Cc1ncsc1-c1ccc([C@H](C)NC(=O)[C@@H]2C[C@@H](O)CN2C(=O)[C@@H](NC(=O)CCCCCCC(=O)N2C[C@H]3CN(CC[C@H](CSc4ccccc4)Nc4ccc(S(=O)(=O)NC(=O)c5ccc(N6CCN(CC7=C(c8ccc(Cl)cc8F)CCCCC7)CC6)cc5)cc4S(=O)(=O)C(F)(F)F)C[C@H]3C2)C(C)(C)C)cc1 [Compound 40, cis-(2S,4R)-1-((S)-2-(8-(5-((R)-3-((4-(N-(4-(4-((2-(4-chloro-2-fluorophenyl)cyclohept-1-en-1-yl)methyl)piperazin-1-yl)benzoyl)sulfamoyl)-2-((trifluoromethyl)sulfonyl)phenyl)amino)-4-(phenylthio)butyl)hexahydropyrrolo[3,4-c]pyrrol-2(1H)-yl)-8-oxooctanamido)-3,3-dimethylbutanoyl)-4-hydroxy-N—((S)-1-(4-(4-methylthiazol-5-yl)phenyl)ethyl)pyrrolidine-2-carboxamide]	> 6.30

Results, then the molecule that gave them:

pIC50	SMILES
> 6.30	Cc1ncsc1-c1ccc([C@H](C)NC(=O)[C@@H]2C[C@@H](O)CN2C(=O)[C@@H](NC(=O)CCCCCC(=O)N2C[C@@H]3C[C@H]2CN3CC[C@H](CSc2ccccc2)Nc2ccc(S(=O)(=O)NC(=O)c3ccc(N4CCN(CC5=C(c6ccc(Cl)cc6)CCCCC5)CC4)cc3)cc2S(=O)(=O)C(F)(F)F)C(C)(C)C)cc1 [Compound 33, (2S,4R)-1-((S)-2-(7-((1S,4S)-5-((R)-3-((4-(N-(4-(4-((2-(4-chlorophenyl)cyclohept-1-en-1-yl)methyl)piperazin-1-yl)benzoyl)sulfamoyl)-2-((trifluoromethyl)sulfonyl)phenyl)amino)-4-(phenylthio)butyl)-2,5-diazabicyclo[2.2.1]heptan-2-yl)-7-oxoheptanamido)-3,3-dimethylbutanoyl)-4-hydroxy-N—((S)-1-(4-(4-methylthiazol-5-yl)phenyl)ethyl)pyrrolidine-2-carboxamide]
> 6.30	Cc1ncsc1-c1ccc([C@H](C)NC(=O)[C@@H]2C[C@@H](O)CN2C(=O)[C@@H](NC(=O)CCCCCCC(=O)N2C[C@@H]3C[C@H]2CN3CC[C@H](CSc2ccccc2)Nc2ccc(S(=O)(=O)NC(=O)c3ccc(N4CCN(CC5=C(c6ccc(Cl)cc6)CCCCC5)CC4)cc3)cc2S(=O)(=O)C(F)(F)F)C(C)(C)C)cc1 [Compound 34, (2S,4R)-1-((S)-2-(8-((1S,4S)-5-((R)-3-((4-(N-(4-(4-((2-(4-chlorophenyl)cyclohept-1-en-1-yl)methyl)piperazin-1-yl)benzoyl)sulfamoyl)-2-((trifluoromethyl)sulfonyl)phenyl)amino)-4-(phenylthio)butyl)-2,5-diazabicyclo[2.2.1]heptan-2-yl)-8-oxooctanamido)-3,3-dimethylbutanoyl)-4-hydroxy-N—((S)-1-(4-(4-methylthiazol-5-yl)phenyl)ethyl)pyrrolidine-2-carboxamide]
> 6.30	Cc1ncsc1-c1ccc([C@H](C)NC(=O)[C@@H]2C[C@@H](O)CN2C(=O)[C@@H](NC(=O)CCCCCC(=O)N2CCN(CC[C@H](CSc3ccccc3)Nc3ccc(S(=O)(=O)NC(=O)c4ccc(N5CCN(CC6=C(c7ccc(Cl)cc7F)CCCCC6)CC5)cc4)cc3S(=O)(=O)C(F)(F)F)CC2)C(C)(C)C)cc1 [Compound 35, (2S,4R)-1-((S)-2-(7-(4-((R)-3-((4-(N-(4-(4-((2-(4-chloro-2-fluorophenyl)cyclohept-1-en-1-yl)methyl)piperazin-1-yl)benzoyl)sulfamoyl)-2-((trifluoromethyl)sulfonyl)phenyl)amino)-4-(phenylthio)butyl)piperazin-1-yl)-7-oxoheptanamido)-3,3-dimethylbutanoyl)-4-hydroxy-N—((S)-1-(4-(4-methylthiazol-5-yl)phenyl)ethyl)pyrrolidine-2-carboxamide]
